Results from patent publication US20030220309A1, “17-methylenandrostan-3alpha-ol analogs as CRH inhibitors” (Pherin Pharmaceuticals, Inc., priority 2001, published 2003).

Columns and labels:
[1] = test system: normal adult male and female human volunteers; experiment: Sleep evaluation after administration to the vomeronasal organ of normal human volunteers; type: in vivo; set-up: key: increase (↑); decrease (↓); no change (=); conditions: 400 pg administered to the VNO before bedtime, normal subjects, males and females combined, change with respect to placebo
Method: (§1) 17-Methylenandrost-4-en-3α-ol, 400 pg, or placebo were administered to the vomeronasal organs of normal adult male and female human volunteers using a delivery device which delivered the compound to the opening of the vomeronasal organ in measured quantity (two 2 second “puffs” of a 10^−8 M solution of the active ingredient in propylene glycol, or propylene glycol alone). The study evaluations included objective and subjective evaluations of sleep, a power spectral analysis of the subjects' electroencephalograms, and a pencil-and-paper self-report inventory (ABS-70) of the subjects' effective state.
The table below provides a comparison of the results from the study with 17-methylenandrost-4-en-3α-ol with literature reports on the effects of the effects of the marketed antidepressant paroxetine (Paxil®); where changes in sleep variables are indicated as an increase (↑), decrease (↓), or no change (=) with respect to placebo.
Comparative effects of 17-methylenandrost-4-en-3α-ol, 400 pg administered to the VNO, and paroxetine, 30 mg orally, given before bedtime in normal subjects: […]

[2] = test system: normal adult male and female human volunteers; experiment: Power spectral analysis of electroencephalograms after vomeronasal administration; type: in vivo; conditions: 400 pg to the vomeronasal organ
Method: as §1
Based on this study, 17-methylenandrost-4-en-3α-ol shares antidepressant and stimulant properties with paroxetine and other selective serotonin reuptake inhibitor antidepressants.

CRH = experiment: ACTH and cortisol concentrations in plasma and urine (indirect measure of CRH inhibition); type: in vivo; conditions: 400 pg to the vomeronasal organ, human volunteers
Method: The compounds of this invention are, when administered to the VNO, CRH inhibitors. Their activity as CRH inhibitors in vivo can be measured directly by measurement of the inhibition of CRH or indirectly by the measurement of other hormones, such as ACTH, and steroids, such as cortisol, associated with CRH, as discussed in the Examples.
as §1
(§2) 17-Methylenandrost-4-en-3α-ol also reduces plasma concentrations of ACTH and cortisol, and also reduces cortisol concentration in urine. It also increases, relative to placebo, concentrations of the neurotransmitters norepinephrine and serotonin in blood and their metabolites in urine.

[3] = test system: norepinephrine and serotonin; experiment: Neurotransmitter concentrations in blood and metabolites in urine; type: in vivo; conditions: relative to placebo, human volunteers
Method: as §1, §2

[4] = test system: normal adult male and female human volunteers; experiment: Overall outcome of the vomeronasal study (sleep, EEG, self-report); type: in vivo; conditions: administration to the vomeronasal organ
Method: as §1

normal subjects = test system: normal subjects; set-up: key: increase (↑); decrease (↓); no change (=); conditions: 30 mg orally before bedtime, change with respect to placebo, from Saletu et al. 1991; cited from earlier work

## C=C1CC[C@H]2[C@@H]3CCC4=C[C@H](O)CC[C@]4(C)[C@H]3CC[C@]12C [17-Methylenandrost-4-en-3α-ol]
[1]
  REM sleep latency: ↑
  Sleep efficiency: ↓
  Sleep latency: ↑
  Stage 1 sleep time: ↑
  Stage 2 sleep time: ↑
  Stages 3 + 4 sleep time: =
  Total REM sleep time: ↓
  Total sleep time: ↓
[2]
  EEG β-wave activity: increased
  EEG θ-wave activity: increased
  δ-frequency activity in stages S3 and S4 non-REM sleep: increase
CRH; plasma
  plasma concentration of ACTH: reduces
  plasma concentration of cortisol: reduces
CRH; urine
  cortisol concentration in urine: reduces
[3]; blood
  concentration of norepinephrine in blood: increases
  concentration of serotonin in blood: increases
[3]; urine
  concentrations of norepinephrine and serotonin metabolites in urine: increases
[4]
  overall study result (sleep, EEG, hormones, neurotransmitters): antidepressant properties

## Fc1ccc([C@@H]2CCNC[C@H]2COc2ccc3c(c2)OCO3)cc1 [Paroxetine, paroxetine]
Normal subjects
  REM sleep latency: ↑
  Sleep efficiency: ↓
  Sleep latency: ↑
  Stage 1 sleep time: ↑
  Stage 2 sleep time: =
  Stages 3 + 4 sleep time: =
  Total REM sleep time: ↓
  Total sleep time: ↓
